Data on seven compounds can be found in US4341893A, “Quinazoline derivatives” (Synthelabo, priority 1976, dated 1982).

Some results are limits rather than exact numbers.

The nature of data set [1]: LD 50 rat (Table II). Conditions: in vivo.
In data set [2] the test system is spontaneously hypertensive male rats (Okamoto strain). The data set is described as follows: Anti-hypertensive effect in spontaneously hypertensive rats, systolic pressure. The format is in vivo. Conditions: 10 mg/kg perorally, spontaneously hypertensive rat. As for the experimental part: Experiments were carried out on spontaneously hypertensive male rats (Okamoto strain), which were at least 14 weeks old. The systolic pressure was measured according to the technique described by Gerold and Tschirky (Arzneim.-Forsch. 1968, 18, 1285). The compounds were administered orally at a dose of 1 or 10 mg/kg.
Table II collects together the results obtained which are expressed in percent variation of the initial pressure, 2 hours, 4 hours and 24 hours after administration of the compound (I).

In the case of `COc1cc2nc(N3CCC(C(=O)c4ccc5c(c4)OCO5)CC3)nc(N)c2cc1OC` [Compound 1, 4-Amino-6,7-dimethoxy-2-[4-(3,4-methylenedioxybenzoyl)piperidino]-quinazoline], the LD50 in data set [1] (ip / intraperitoneally) is > 500 mg/kg. Also, in data set [2], the “% variation of the pressure after 2 hours” value (shortened to “% variation … after 2 hours”) is listed as -30%, the “% variation of the pressure after 4 hours” value (“% variation … after 4 hours” for short) is -32% and the “% variation of the pressure after 24 hours” value (“% variation … after 24 hours” below) is listed as -37%.

Take `COc1cc2nc(NCCCN(C)C(=O)c3ccccc3)nc(N)c2cc1OC` [Compound 12, N1-(4-amino-6,7-dimethoxy-quinazolinyl-2)-N2-benzoyl-N2-methyl-propylenediamine]: the median lethal dose (LD50) in data set [1] (ip / intraperitoneally) was ~400 mg/kg. Besides, in data set [2], the “% variation … after 2 hours” value is -31% and the “% variation … after 4 hours” value is listed as -23%.

For `COc1cc2nc(N3CCC(C(=O)c4nnc(SC)o4)CC3)nc(N)c2cc1OC` [Compound 7, 4-amino-6,7-dimethoxy-2-[4-(5-methylthio-1,3,4-oxadiazole-2-carbonyl)-piperidino]-quinazoline], in data set [1] (po, perorally), the median lethal dose (LD50) was > 500 mg/kg. In addition, in data set [2], the “% variation … after 2 hours” value is -24%, the “% variation … after 4 hours” value is given as -20% and the “% variation … after 24 hours” value was -2%.

In the case of `COc1cc2nc(N3CCC(C(=O)c4cccs4)CC3)nc(N)c2cc1OC` [Compound 6], in data set [1] (ip / intraperitoneally), the 50% lethal dose (LD50) is > 500 mg/kg. Also, in data set [2], the “% variation … after 2 hours” value was -27%, the “% variation … after 4 hours” value is -22% and the “% variation … after 24 hours” value is given as -2%.

For the compound `COc1cc2nc(N(C)CCCN(C)C(=O)c3ccccc3)nc(N)c2cc1OC` [Compound 10, N1-(4-amino-6,7-dimethoxy-quinazolinyl-2)-N2-benzoyl-N1 N2-dimethyl-propylenediamine], in data set [1] (po, perorally), the median lethal dose (LD50) was > 500 mg/kg. In data set [2], the “% variation … after 2 hours” value was -23%, the “% variation … after 4 hours” value is -15% and the “% variation … after 24 hours” value is given as -4%.

On to `COc1cccc(C(=O)C2CCN(c3nc(N)c4cc(OC)c(OC)cc4n3)CC2)c1` [Compound 3, 4-Amino-6,7-dimethoxy-2-[4-(3-methoxybenzoyl)-piperidino]-quinazoline], for which the 50% lethal dose (LD50) in data set [1] (ip / intraperitoneally) was ~500 mg/kg. For the same compound, in data set [2], the “% variation … after 2 hours” value is -32% and the “% variation … after 4 hours” value is recorded as -23%.

Consider `COc1cc2nc(N3CCC(C(=O)c4ccccc4)CC3)nc(N)c2cc1OC` [Compound 2], for which, in data set [1] (ip / intraperitoneally), the median lethal dose (LD50) is > 500 mg/kg. Further, in data set [2], the “% variation … after 2 hours” value was -43%, the “% variation … after 4 hours” value was -32% and the “% variation … after 24 hours” value is given as -40%.

One may read the LD50 as the dose expected to kill half of the subjects tested. A high value points to a less toxic substance.
